Test results from BindingDB's records for doi:10.7270/Q2930RK5 (University of Pittsburgh, 2008).

molecular target: Serine/threonine-protein kinase PLK1 (Homo sapiens, UniProt P53350); assay: PLK1 kinase inhibition, dose response, selectivity assay for PKD inhibitor project, biochemical (AID 1383)
Sequence (P53350 whole entry): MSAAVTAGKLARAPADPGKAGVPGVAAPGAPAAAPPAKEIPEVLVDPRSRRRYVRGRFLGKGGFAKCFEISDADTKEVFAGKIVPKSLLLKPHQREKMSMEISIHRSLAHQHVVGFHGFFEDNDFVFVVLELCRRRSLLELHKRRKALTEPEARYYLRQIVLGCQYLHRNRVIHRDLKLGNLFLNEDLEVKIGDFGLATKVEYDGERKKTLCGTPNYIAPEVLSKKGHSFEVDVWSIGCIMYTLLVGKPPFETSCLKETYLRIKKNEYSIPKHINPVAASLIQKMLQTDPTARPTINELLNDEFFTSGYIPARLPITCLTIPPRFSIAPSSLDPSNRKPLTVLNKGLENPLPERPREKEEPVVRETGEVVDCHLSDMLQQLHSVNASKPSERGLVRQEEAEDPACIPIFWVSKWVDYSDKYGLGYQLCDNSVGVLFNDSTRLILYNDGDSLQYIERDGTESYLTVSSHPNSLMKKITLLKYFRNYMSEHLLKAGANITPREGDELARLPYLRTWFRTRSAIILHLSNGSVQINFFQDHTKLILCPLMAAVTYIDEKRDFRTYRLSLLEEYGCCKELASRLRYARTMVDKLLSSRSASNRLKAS

Compound | IC50
CC(=O)Oc1cc(OC(C)=O)c2c(C)cc(=O)oc2c1 [(5-acetyloxy-4-methyl-2-oxochromen-7-yl) acetate] | > 50 µM
O=C(Nc1ccc(CN2CCOCC2)cc1)c1ccc(-c2cccc(Cl)c2)o1 [MLS000557592] | > 50 µM
Clc1cncc(Cl)c1N=NCc1ccncc1 [SMR000206620] | > 50 µM
N=C(N)NC(=O)c1nc(Cl)c(N)nc1N [3,5-diamino-N-carbamimidoyl-6-chloropyrazine-2-carboxamide] | 6.63 µM
Cc1cc(NCCCN)nc(-c2ccccc2O)n1 [MLS000079650] | > 50 µM
CCC(=O)Nc1c2c(nn1-c1ccccc1C)CSC2 [MLS000087884] | > 50 µM
CCC1=NNc2cccc3c(OC)ccc1c23 [SMR000140796] | > 50 µM
NC(=O)c1cn([C@@H]2O[C@H](CO)[C@@H](O)[C@H]2O)c2ncnc(N)c12 [MLS000517268] | 12.1 µM
CS(=O)(=O)N1CCN(c2ccccc2NC(=O)c2ccc(Br)o2)CC1 [MLS000123947] | > 50 µM
